Test results: paper PMC3408963 (Bioorganic & medicinal chemistry, 2012)

Tests used:
COX-1 = COX-1 (Homo sapiens, UniProt P23219); assay type: biochemical; details: for COX-1 inhibition, result in words: initial screen at 25 μM / relevant concentration range; for IC50: read-out: IC50 COX-1, radioactivity assay, pre-incubation 17 min at 25 °C and 3 min at 37 °C, 50 μM [14C]-AA for 30 sec, average of at least two independent experiments
COX-2 = target: T1, COX-2 (Homo sapiens, UniProt P35354); assay type: biochemical; details: for COX-2 inhibition, result in words: initial screen at 25 μM / relevant concentration range; for IC50: read-out: IC50 COX-2, radioactivity assay, pre-incubation 17 min at 25 °C and 3 min at 37 °C, 50 μM [14C]-AA for 30 sec, average of at least two independent experiments
T1 sequence (P35354 18-604): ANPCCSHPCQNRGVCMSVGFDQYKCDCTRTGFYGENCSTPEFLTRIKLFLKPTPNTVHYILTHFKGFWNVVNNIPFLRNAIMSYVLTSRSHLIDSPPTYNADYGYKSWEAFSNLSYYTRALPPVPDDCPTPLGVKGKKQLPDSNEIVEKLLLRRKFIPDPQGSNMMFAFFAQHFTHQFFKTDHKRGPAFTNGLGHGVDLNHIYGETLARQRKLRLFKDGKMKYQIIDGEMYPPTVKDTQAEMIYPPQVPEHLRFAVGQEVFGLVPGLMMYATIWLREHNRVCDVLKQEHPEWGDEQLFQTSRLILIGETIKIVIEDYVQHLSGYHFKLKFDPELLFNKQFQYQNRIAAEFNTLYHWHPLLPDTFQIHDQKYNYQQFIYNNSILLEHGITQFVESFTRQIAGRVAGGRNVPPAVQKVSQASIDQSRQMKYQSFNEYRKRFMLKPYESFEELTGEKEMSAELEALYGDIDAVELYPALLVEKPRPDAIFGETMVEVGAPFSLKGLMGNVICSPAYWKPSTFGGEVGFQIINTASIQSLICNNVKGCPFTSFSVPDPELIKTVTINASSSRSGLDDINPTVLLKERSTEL

Sequence of COX-1 (P23219 24-599): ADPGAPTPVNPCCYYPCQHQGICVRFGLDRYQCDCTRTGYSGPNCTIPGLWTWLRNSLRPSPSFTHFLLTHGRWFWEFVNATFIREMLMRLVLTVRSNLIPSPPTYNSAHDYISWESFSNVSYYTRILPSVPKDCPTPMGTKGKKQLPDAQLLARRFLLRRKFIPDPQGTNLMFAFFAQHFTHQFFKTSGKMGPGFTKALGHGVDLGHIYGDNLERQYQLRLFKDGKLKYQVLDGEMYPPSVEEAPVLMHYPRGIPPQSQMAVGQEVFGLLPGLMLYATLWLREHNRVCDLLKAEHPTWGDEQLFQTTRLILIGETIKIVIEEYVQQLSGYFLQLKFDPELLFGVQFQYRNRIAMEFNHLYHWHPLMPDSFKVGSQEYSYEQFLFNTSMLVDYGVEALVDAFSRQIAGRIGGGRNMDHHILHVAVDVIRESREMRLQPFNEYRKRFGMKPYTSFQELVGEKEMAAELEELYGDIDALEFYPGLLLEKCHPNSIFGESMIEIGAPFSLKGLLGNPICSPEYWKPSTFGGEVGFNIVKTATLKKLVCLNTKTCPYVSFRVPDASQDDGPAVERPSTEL

| Compound | COX-1 inhibition, result in words (COX-1) | IC50 (COX-1) | COX-2 inhibition, result in words (COX-2) | IC50 (COX-2) |
| --- | --- | --- | --- | --- |
| 1-(1-Carboxy-1,2-dicarba-closo-dodecaboran(12)yl)-5-methoxy-2-methyl-1H-indole-3-acetic acid tert-butyl ester [Compound 3o] | not COX-1 | > 25 µM | exclusively inhibited COX-2 | 1.41 µM |
| COC(=O)Cc1c(C)n(C(=O)c2ccc(Cl)cc2)c2ccc(OC)cc12 [Compound 1i, Indomethacin methyl ester, reference compound] |  | > 25 µM |  |  |
| 1-(1-Carboxy-1,2-dicarba-closo-dodecaboran(12)yl)-5-methoxy-2-methyl-1H-indole-3-acetic acid [Compound 4o] | not COX-1 | > 25 µM | exclusively inhibited COX-2 | 3.68 µM |

Now those with a lower IC50 (COX-1), led by results:

| COX-1 inhibition, result in words (COX-1) | IC50 (COX-1) | COX-2 inhibition, result in words (COX-2) | IC50 (COX-2) | Compound |
| --- | --- | --- | --- | --- |
| also inhibited COX-1 | 12.8 µM |  | 0.084 µM | 1-(1-Carboxy-1,2-dicarba-closo-dodecaboran(12)yl)-5-methoxy-2-methyl-1H-indole-3-acetic acid methyl ester [Compound 1o] |
| also inhibited COX-1 | 15.1 µM |  | 11.6 µM | 1-(1-Carboxy-1,2-dicarba-closo-dodecaboran(12)yl)-5-methoxy-2-methyl-1H-indole-3-acetic acid benzyl ester [Compound 2o] |
